Measured values: PubChem BioAssay (NCI)
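Compound exposure: 48 hours, 5 concentrations, 96-well plates. Abbreviation: GI50, concentration required for 50% inhibition of growth. The concentration for full growth arrest is given as TGI.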

Tests used:
Test in all cases: DTP human tumour cell line panel, 48 h
OVCAR-8 ovarian = tested on: OVCAR-8 ovarian
SK-MEL-5 melanoma = tested on: SK-MEL-5 melanoma
NCI-H460 lung = tested on: NCI-H460 lung
NCI-H226 lung = tested on: NCI-H226 lung
OVCAR-4 ovarian = tested on: OVCAR-4 ovarian
MOLT-4 leukemia = tested on: MOLT-4 leukemia
UO-31 renal = tested on: UO-31 renal
SF-268 CNS = tested on: SF-268 CNS
MDA-MB-231 breast = tested on: MDA-MB-231 breast
LOX IMVI melanoma = tested on: LOX IMVI melanoma
A549 NSCLC = tested on: A549 NSCLC
CAKI-1 renal = tested on: CAKI-1 renal
NCI/ADR-RES ovarian = tested on: NCI/ADR-RES ovarian
HCT-15 colon = tested on: HCT-15 colon
OVCAR-3 ovarian = tested on: OVCAR-3 ovarian
SK-MEL-28 melanoma = tested on: SK-MEL-28 melanoma
HL-60(TB) leukemia = tested on: HL-60(TB) leukemia
NCI-H23 lung = tested on: NCI-H23 lung
COLO 205 colon = tested on: COLO 205 colon
HOP-92 NSCLC = tested on: HOP-92 NSCLC
SR leukemia = tested on: SR leukemia
PC-3 prostate = tested on: PC-3 prostate
ACHN renal = tested on: ACHN renal
DU-145 prostate = tested on: DU-145 prostate
SF-295 CNS = tested on: SF-295 CNS
MCF7 breast = tested on: MCF7 breast
SK-OV-3 ovarian = tested on: SK-OV-3 ovarian
SN12C renal = tested on: SN12C renal
M14 melanoma = tested on: M14 melanoma
NCI-H522 lung = tested on: NCI-H522 lung
KM12 colon = tested on: KM12 colon
RPMI-8226 leukemia = tested on: RPMI-8226 leukemia
SNB-75 CNS = tested on: SNB-75 CNS
BT-549 breast = tested on: BT-549 breast
TK-10 renal = tested on: TK-10 renal
SW-620 colon = tested on: SW-620 colon
SK-MEL-2 melanoma = tested on: SK-MEL-2 melanoma
IGROV1 ovarian = tested on: IGROV1 ovarian
HCC-2998 colon = tested on: HCC-2998 colon
SF-539 CNS = tested on: SF-539 CNS
OVCAR-5 ovarian = tested on: OVCAR-5 ovarian
SNB-19 CNS = tested on: SNB-19 CNS
CCRF-CEM leukemia = tested on: CCRF-CEM leukemia
K-562 leukemia = tested on: K-562 leukemia
U251 CNS = tested on: U251 CNS
HT29 colon = tested on: HT29 colon
HOP-62 NSCLC = tested on: HOP-62 NSCLC
T-47D breast = tested on: T-47D breast
MDA-MB-435 = tested on: MDA-MB-435
HS 578T breast = tested on: HS 578T breast
786-0 renal = tested on: 786-0 renal
RXF 393 renal = tested on: RXF 393 renal
UACC-62 melanoma = tested on: UACC-62 melanoma
UACC-257 melanoma = tested on: UACC-257 melanoma
HCT-116 colon = tested on: HCT-116 colon

CC(C)N(CCCNC(=O)Nc1ccc(C(C)(C)C)cc1)C[C@H]1O[C@@H](n2ccc3c(N)ncnc32)[C@H](O)[C@@H]1O
GI50 (OVCAR-8 ovarian): > 100 µM
TGI (OVCAR-8 ovarian): > 100 µM
GI50 (SK-MEL-5 melanoma): > 100 µM
TGI (SK-MEL-5 melanoma): > 100 µM
GI50 (NCI-H460 lung): > 100 µM
TGI (NCI-H460 lung): > 100 µM
GI50 (NCI-H226 lung): > 100 µM
TGI (NCI-H226 lung): > 100 µM
GI50 (OVCAR-4 ovarian): > 100 µM
TGI (OVCAR-4 ovarian): > 100 µM
GI50 (MOLT-4 leukemia): > 100 µM
TGI (MOLT-4 leukemia): > 100 µM
GI50 (UO-31 renal): > 100 µM
TGI (UO-31 renal): > 100 µM
GI50 (SF-268 CNS): > 100 µM
TGI (SF-268 CNS): > 100 µM
GI50 (MDA-MB-231 breast): > 100 µM
TGI (MDA-MB-231 breast): > 100 µM
GI50 (LOX IMVI melanoma): > 100 µM
TGI (LOX IMVI melanoma): > 100 µM
GI50 (A549 NSCLC): > 100 µM
TGI (A549 NSCLC): > 100 µM
GI50 (CAKI-1 renal): > 100 µM
TGI (CAKI-1 renal): > 100 µM
GI50 (NCI/ADR-RES ovarian): > 100 µM
TGI (NCI/ADR-RES ovarian): > 100 µM
GI50 (HCT-15 colon): > 100 µM
TGI (HCT-15 colon): > 100 µM
GI50 (OVCAR-3 ovarian): > 100 µM
TGI (OVCAR-3 ovarian): > 100 µM
GI50 (SK-MEL-28 melanoma): > 100 µM
TGI (SK-MEL-28 melanoma): > 100 µM
GI50 (HL-60(TB) leukemia): > 100 µM
TGI (HL-60(TB) leukemia): > 100 µM
GI50 (NCI-H23 lung): > 100 µM
TGI (NCI-H23 lung): > 100 µM
GI50 (COLO 205 colon): > 100 µM
TGI (COLO 205 colon): > 100 µM
GI50 (HOP-92 NSCLC): > 100 µM
TGI (HOP-92 NSCLC): > 100 µM
GI50 (SR leukemia): > 100 µM
TGI (SR leukemia): > 100 µM
GI50 (PC-3 prostate): > 100 µM
TGI (PC-3 prostate): > 100 µM
GI50 (ACHN renal): > 100 µM
TGI (ACHN renal): > 100 µM
GI50 (DU-145 prostate): > 100 µM
TGI (DU-145 prostate): > 100 µM
GI50 (SF-295 CNS): > 100 µM
TGI (SF-295 CNS): > 100 µM
GI50 (MCF7 breast): > 100 µM
TGI (MCF7 breast): > 100 µM
GI50 (SK-OV-3 ovarian): > 100 µM
TGI (SK-OV-3 ovarian): > 100 µM
GI50 (SN12C renal): > 100 µM
TGI (SN12C renal): > 100 µM
GI50 (M14 melanoma): > 100 µM
TGI (M14 melanoma): > 100 µM
GI50 (NCI-H522 lung): > 100 µM
TGI (NCI-H522 lung): > 100 µM
GI50 (KM12 colon): > 100 µM
TGI (KM12 colon): > 100 µM
GI50 (RPMI-8226 leukemia): > 100 µM
TGI (RPMI-8226 leukemia): > 100 µM
GI50 (SNB-75 CNS): 26.2 µM
TGI (SNB-75 CNS): > 100 µM
GI50 (BT-549 breast): > 100 µM
TGI (BT-549 breast): > 100 µM
GI50 (TK-10 renal): > 100 µM
TGI (TK-10 renal): > 100 µM
GI50 (SW-620 colon): > 100 µM
TGI (SW-620 colon): > 100 µM
GI50 (SK-MEL-2 melanoma): > 100 µM
TGI (SK-MEL-2 melanoma): > 100 µM
GI50 (IGROV1 ovarian): > 100 µM
TGI (IGROV1 ovarian): > 100 µM
GI50 (HCC-2998 colon): > 100 µM
TGI (HCC-2998 colon): > 100 µM
GI50 (SF-539 CNS): > 100 µM
TGI (SF-539 CNS): > 100 µM
GI50 (OVCAR-5 ovarian): > 100 µM
TGI (OVCAR-5 ovarian): > 100 µM
GI50 (SNB-19 CNS): > 100 µM
TGI (SNB-19 CNS): > 100 µM
GI50 (CCRF-CEM leukemia): > 100 µM
TGI (CCRF-CEM leukemia): > 100 µM
GI50 (K-562 leukemia): > 100 µM
TGI (K-562 leukemia): > 100 µM
GI50 (U251 CNS): > 100 µM
TGI (U251 CNS): > 100 µM
GI50 (HT29 colon): > 100 µM
TGI (HT29 colon): > 100 µM
GI50 (HOP-62 NSCLC): > 100 µM
TGI (HOP-62 NSCLC): > 100 µM
GI50 (T-47D breast): > 100 µM
TGI (T-47D breast): > 100 µM
GI50 (MDA-MB-435): > 100 µM
TGI (MDA-MB-435): > 100 µM
GI50 (HS 578T breast): > 100 µM
TGI (HS 578T breast): > 100 µM
GI50 (786-0 renal): > 100 µM
TGI (786-0 renal): > 100 µM
GI50 (RXF 393 renal): > 100 µM
TGI (RXF 393 renal): > 100 µM
GI50 (UACC-62 melanoma): > 100 µM
TGI (UACC-62 melanoma): > 100 µM
GI50 (UACC-257 melanoma): > 100 µM
TGI (UACC-257 melanoma): > 100 µM
GI50 (HCT-116 colon): > 100 µM
TGI (HCT-116 colon): > 100 µM
